Counter-ions that a name gives are not always drawn. Like-named read-outs stand apart in the source and are kept apart here.
Legend:
[1] = tested on: sensitized guinea pig trachea; experiment: Schultz-Dale reaction, sensitized guinea pig trachea (tracheal spirals), ovalbumin challenge; type: cell-based; conditions: Cavia porcellus; for inhibition at 10 µM: 10^-5 M; for inhibition at 1 µM: 10^-6 M
Procedure: The antiallergy activity of the compounds of this invention was established by the Schultz-Dale reaction employing sensitized guinea pig trachea by the following procedure:
(§1) Guinea pigs weighing from about 275 to 325 g. are sensitized to ovalbumin. Three to four weeks later, tracheae are removed under CO2 anesthesia. Excess tissue is removed and each trachea is spirally cut and suspended under 6 g. tension in a tissue bath (37° C.) containing modified Tyrode's solution (pH 7.4) oxygenated with a 95 percent O2 -5 percent CO2 gas mixture. The Tyrodes composition (mmol) is: NaCl, 139.2; KCl, 2.7; MgSO4.7H2 O, 0.49; NaHCO3, 11.9; NaH2 PO4.H2 O, 0.4; CaCl2.2H2 O, 1.8 and glucose, 5.5. Tracheae are allowed to equilibrate for 90 minutes before exposure to agonists or drugs.
A response to histamine is elicited at two bath concentrations (1×10^-6 M and 1×10^-4 M). The lower concentration primes the tissue and is allowed a 5 minute contact period. The higher concentration (10 minute exposure) produces a maximal response for the tissue. In each case, the bath fluid is replaced and the tissue is washed two times with fresh Tyrode solution. Compounds tested are introduced into the bath to produce a 10^-4 M concentration twenty minutes after the second histamine treatment (subsequent testing at 10^-5 and 10^-6 M bath concentrations are employed in dose-response analyses). Ovalbumin (8 μg/ml) is introduced into the bath ten minutes later.
The contracture curve following antigen challenge is compared with the maximal histamine response at 10 minute time intervals up to 90 minutes and the responses are expressed as percentage inhibition. The area under the curve is calculated for each time period. […] The EC50 is calculated from the area under the curve values at 90 minutes to define the effective concentration of test compound which produces a 50 percent reduction in area under the curve compared to control tissues.

[2] = tested on: guinea pig lung parenchyma strips; experiment: Schultz-Dale reaction, guinea pig lung parenchyma strips, ovalbumin challenge; type: cell-based; conditions: Cavia porcellus, 1 h, at 60 minutes, read-out: Parenchymal Strips % Inhibition at 60 minutes; for inhibition at 100 µM: 10^-4 M
Procedure: as §1
Following the same basic procedure, guinea pig lung parenchyma strips (25×3×3 mm) dissected along the distal edges of two different lobes are suspended under 1 g. tension in the tissue bath. Equilibration in the Tyrode solution is conducted for 45 minutes with complete solution changes at 15 minute intervals. Maximal contraction induced with histamine (50 μM) primes the tissue. Five minutes later, the bath fluid is exchanged two times and the tissues are allowed to equilibrate 15 minutes longer. The test compound is then introduced into the bath to give a 10^-4 M solution. Five minutes later the ovalbumin challenge (8 μg/ml) is given. The data is collected at ten minute intervals up to 60 minutes and analysed as with the guinea pig trachea technique.

[3] = molecular target: T1, (Cavia porcellus, UniProt Q2NNR5); experiment: Schultz-Dale reaction, guinea pig ileal tissue, inhibition of leucotriene D4; type: cell-based; conditions: Schultz-Dale reaction employing guinea pig ileal tissue; read-out: pA2 as inhibitor of leucotriene D4 (converted)
T1 construct: employing guinea pig ileal tissue; from tissue; host or cells: guinea pig ileum
T1 sequence (Q2NNR5 1-340): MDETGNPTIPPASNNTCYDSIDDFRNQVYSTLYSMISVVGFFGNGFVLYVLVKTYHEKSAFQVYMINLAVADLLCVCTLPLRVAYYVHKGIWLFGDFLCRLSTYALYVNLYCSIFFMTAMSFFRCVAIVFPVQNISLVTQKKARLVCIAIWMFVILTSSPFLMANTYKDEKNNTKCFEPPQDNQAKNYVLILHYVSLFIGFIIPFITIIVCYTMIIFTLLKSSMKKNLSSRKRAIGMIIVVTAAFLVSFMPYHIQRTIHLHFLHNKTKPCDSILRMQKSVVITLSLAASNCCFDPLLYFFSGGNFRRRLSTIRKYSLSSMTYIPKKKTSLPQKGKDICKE

SRS-A = conditions: J.Med.Chem. 20 371 (1977); cited from earlier work
[4] = tested on: anaphylactic tissue response; experiment: anaphylactic tissue response / leucotriene activity of nitro substituted compounds; type: cell-based
[5] = 1.5 h, 10^-4 M, at 90 minutes, read-out: Tracheal Spirals % Inhibition at 90 minutes
[6] = 1.5 h, 50 percent reduction in area under the curve at 90 minutes, read-out: Tracheal Spirals EC50

| Compound | inhibition at 100 µM [1, 5] [%] | inhibition at 10 µM ([1]; 1.5 h, at 90 minutes) [%] | inhibition at 1 µM ([1]; 1.5 h, at 90 minutes) [%] | EC50 [1, 6] [µM] | other results |
| --- | --- | --- | --- | --- | --- |
| CCCc1c(OCC(O)CNc2cccc(NC(=O)C(=O)O)c2C#N)ccc(C(C)=O)c1O (centres unmarked) [Example 8, [[[3-[3-(4-Acetyl-3-hydroxy-2-propylphenoxy)-2-hydroxypropyl]amino]-2-cyanophenyl]amino]oxoacetic acid sodium salt] | 63.5 | 37.5 | 28.4 | 25 |  |
| CCCc1c(OCC(O)COc2cccc(N)c2C#N)ccc(C(C)=O)c1O (centres unmarked) [Example 1, 2-[3-(4-Acetyl-3-hydroxy-2-propylphenoxy)-2-hydroxypropoxy]-6-aminobenzonitrile] | 64.2 | 45.7 | 20.6 | 20 |  |
| CCCc1c(OCC(O)COc2cccc(NC(=O)C(=O)OCC)c2)ccc(C(C)=O)c1O (centres unmarked) [Example 5, [[3-[3-(4-Acetyl-3-hydroxy-2-propylphenoxy)-2-hydroxypropoxy]phenyl]amino]oxoacetic acid ethyl ester] | 53 | 22.8 | 8.57 | 97 |  |
| CCCc1c(OCC(O)CNc2cccc(N)c2C(N)=O)ccc(C(C)=O)c1O (centres unmarked) [Example 9, 2-[3-(4-Acetyl-3-hydroxy-2-propylphenoxy)-2-hydroxypropyl]amino-6-aminobenzamide] | 40.7 |  |  |  |  |
| CC(=O)c1ccc(OCC(O)COc2cccc([N+](=O)[O-])c2)cc1O (centres unmarked) [Example 10, 1-[2-Hydroxy-4-[2-hydroxy-3-(3-nitrophenoxy)propoxy]phenyl]ethanone] |  |  |  |  | inhibition at 100 µM ([1]; 10^-4 M concentration, sensitized guinea pig trachea, read-out: percent inhibition in the Schultz-Dale reaction): 62%; EC50 ([1]; sensitized guinea pig trachea, read-out: EC50 in the Schultz-Dale reaction): 76 µM |
| CCCc1c(OCC(O)COc2cccc(NC(=O)C(=O)OCC)c2C#N)ccc(C(C)=O)c1O (centres unmarked) [Example 2, [[3-[3-(4-Acetyl-3-hydroxy-2-propylphenoxy)-2-hydroxypropoxy]-2-cyanophenyl]amino]oxoacetic acid ethyl ester] | 73 | 63 | 18.8 | 8.7 | inhibition at 100 µM [2]: 65.5%; inhibition at 10 µM ([2]; 10^-5 M): 2.09%; Kb [3]: 0.000398 µM |
| CCCc1c(OCC(O)CNc2cccc(N)c2C#N)ccc(C(C)=O)c1O (centres unmarked) [Example 6, 2-Amino-6-[[3-(4-acetyl-3-hydroxy-2-propylphenoxy)-2-hydroxypropyl]amino]benzonitrile] | 38.8 |  |  |  |  |
| CCCc1c(OCC(O)COc2ccc3c(=O)cc(C(=O)[O-])oc3c2CCC)ccc(C(C)=O)c1O.[Na+] (centres unmarked) [FPL 55712, sodium 7-[3-(4-acetyl-3-hydroxy-2-propylphenoxy)-2-hydroxypropoxy]-4-oxo-8-propyl-4H-1-benzopyran-2-carboxylate] |  |  |  |  | antagonism of SRS-A (SRS-A): specific antagonist of SRS-A |
| CCCc1c(OCC(O)CNc2cccc([N+](=O)[O-])c2C#N)ccc(C(C)=O)c1O (centres unmarked) [2-[[3-(4-acetyl-3-hydroxy-2-propylphenoxy)-2-hydroxypropyl]amino]-6-nitrobenzonitrile] |  |  |  |  | effect on anaphylactic tissue response [4]: potentiator of the anaphylactic tissue response |
| CCCc1c(OCC(O)CNc2cccc(NC(=O)C(=O)OCC)c2C#N)ccc(C(C)=O)c1O (centres unmarked) [Example 7, [[[3-[3-(4-acetyl-3-hydroxy-2-propylphenoxy)-2-hydroxypropyl]amino]-2-cyanophenyl]amino]oxoacetic acid ethyl ester] | 63.8 | 39.3 | 2.64 | 30 |  |
| CCCc1c(OCC(O)COc2cccc(N)c2)ccc(C(C)=O)c1O (centres unmarked) [Example 4, 1-[2-Hydroxy-3-propyl-4-[2-hydroxy-3-(3-aminophenoxy)propoxy]phenyl]ethanone] | 76.2 | 9.07 | 4.98 | 36 |  |
| CCCc1c(OCC(O)COc2cccc(NC(=O)C(=O)O)c2C#N)ccc(C(C)=O)c1O (centres unmarked) [Example 3, [[3-[-(4-Acetyl-3-hydroxy-2-propylphenoxy)-2-hydroxypropoxy]-2-cyanophenyl]amino]oxoacetic acid sodium salt] | 62.1 | 21.5 | 12.8 | 53 | inhibition at 100 µM [2]: 22.9% |
